The results in this text go back to article PMC9822769, “The Strange Case: The Unsymmetric Cisplatin-Based Pt(IV) Prodrug [Pt(CH3COO)Cl2(NH3)2(OH)] Exhibits Higher Cytotoxic Activity with respect to Its Symmetric Congeners due to Carrier-Mediated Cellular Uptake” (Bioinorganic Chemistry and Applications, 2022).

Common to all, as to format: cell-based, human
The subject of test [1] is HCT 116. The test can be described thus: Resazurin reduction cell viability assay, HCT 116. Conditions: 72 h of treatment; mean ± sd. Here is the method:
(§1) The compounds under investigation were tested on a panel of commercial human cancer cell lines: ovarian endometrioid adenocarcinoma A2780 (ICLC HTL98008), its cisplatin-resistant variant A2780cisR (ECACC 93112517), colon carcinoma HCT 116 (ECACC 91091005), breast invasive ductal carcinoma MCF7 (ECACC 86012803), embryonal carcinoma NTERA-2 clone D1 (also known as NT2/D1, ICLC HTL97025), and lung adenocarcinoma A549 (ICLC HTL03001). Furthermore, a cell line derived from the pleural effusion of a patient with untreated malignant pleural mesothelioma (MPM) was added to the panel, namely, MM98 (sarcomatoid phenotype). Commercial cells were purchased from the European Collection of Authenticated Cell Cultures (ECACC, UK) or the Interlab Cell Line Collection (ICLC, Genoa, Italy), while the MM98 cell line was obtained from the Pathology Unit of the National Hospital of Alessandria (Italy).
(§2) The following media were used to grow the cells: RPMI 1640 (for A2780, A2780cisR, NT2/D1, and A549 cells), DMEM (for MCF7 cells), DMEM supplemented with nonessential amino acids (for MM98 cells), and McCoy's 5A (for HCT 116 cells). All media contained L-glutamine (2 mM) and were added with penicillin (100 IU·mL^−1), streptomycin (100 mg·L^−1), and 10% heat inactivated FBS. To maintain resistance in A2780cisR cells, cisplatin (1 μM) was added to the medium every two passages.
(§3) Continuous treatments (CT) were carried out at 37°C in a humidified chamber with 5% CO2. Cisplatin was dissolved in a 0.9% w/v NaCl aqueous solution and brought to pH = 3 with HCl (final stock concentration 1 mM). The Pt(IV) Complexes 1–3 were dissolved in milliQ water (final stock concentration 5 mM) and stored at −20°C. The stock concentration was confirmed with inductively coupled plasma-mass spectrometry (ICP-MS) measurements. The mother solutions were diluted in a complete medium to the required concentration.
(§4) To assess the growth inhibition of the compounds under investigation, a cell viability test (i.e., the resazurin reduction assay) was used. […] At the end of the treatment (72 h), viability was evaluated with 100 μg·mL^−1 resazurin (Acros Chemicals, France) in a fresh medium for 1 h at 37°C, and the amount of the reduced product, resorufin, was measured by fluorescence (excitation λ = 535 nm, emission λ = 595 nm) with a Tecan Infinite F200Pro plate reader (Tecan, Austria). In each experiment, cells were challenged with drug candidates at different concentrations, and the final data were calculated from at least three replicates of the same experiment performed in triplicate. The fluorescence of 8 wells containing a medium without cells was used as a blank. Fluorescence data were normalized to 100% cell viability for nontreated cells. […]
(Resazurin is reduced to fluorescent resorufin, in cell work by metabolically active cells.)

In test [2] the test system is A549. The test can be described thus: Resazurin reduction cell viability assay, A549. The conditions noted are these: 72 h of treatment; mean ± sd. How it is done: as §1, §2, §3, §4
Test [3] has as its system A2780cisR. The experiment in a line: Resazurin reduction cell viability assay, A2780cisR. The conditions noted are these: for resistance factor, RF = IC50 A2780cisR/IC50 A2780: 72 h, rounded to the nearest unity; for IC50: 72 h of treatment, cisplatin-resistant, mean ± sd. Here is the method:
as §1, §2, §3
To assess the growth inhibition of the compounds under investigation, a cell viability test (i.e., the resazurin reduction assay) was used. In brief, 2–5 × 10^3 cells per well (depending on the cell line) were seeded in black sterile tissue culture-treated 96-well plates. At the end of the treatment (72 h), viability was evaluated with 100 μg·mL^−1 resazurin (Acros Chemicals, France) in a fresh medium for 1 h at 37°C, and the amount of the reduced product, resorufin, was measured by fluorescence (excitation λ = 535 nm, emission λ = 595 nm) with a Tecan Infinite F200Pro plate reader (Tecan, Austria). In each experiment, cells were challenged with drug candidates at different concentrations, and the final data were calculated from at least three replicates of the same experiment performed in triplicate. The fluorescence of 8 wells containing a medium without cells was used as a blank. Fluorescence data were normalized to 100% cell viability for nontreated cells. The half-inhibiting concentration (IC50), defined as the concentration of the drug that reduces cell viability by 50%, was obtained from the dose-response sigmoid using Origin Pro (version 8, Microcal Software Inc., Northampton, MA, USA).

The subject of test [4] is A2780 cells. The test can be described thus: Cellular Pt accumulation in A2780 cells in the presence of uptake inhibitors. Conditions: A2780, 1 h, 10 μM; for effect of NaN3/2DG pretreatment on cell accumulation (AR): NaN3 and 2DG both 25 mM. How it is done: A2780 and A2780cisR cells were seeded in 10 mm Petri dishes and challenged with complexes under investigation (10 μM) in a complete medium for 4 h. At the end of the exposure, cells were washed three times with PBS, detached from Petri dishes using 0.05% trypsin 1x + 2% EDTA (HyClone, Thermo Fisher), and harvested in a completely fresh medium. An automatic cell counting device (Countess®, Life Technologies) was used to measure the number and mean diameter of each cell necessary to calculate the mean cellular (spherical) volume.
For the analysis of Pt accumulation, cells were transferred to a borosilicate glass tube and centrifuged at 1100 rpm for 5 min at room temperature. The supernatant was carefully removed by aspiration, while approximately, 200 μL of the supernatant was left to limit cell loss. Cellular pellets were stored at −80°C until mineralization.
The determination of the platinum content was performed by ICP-MS (Thermo Optek X Series 2). Mineralization was carried out by adding 70% w/w HNO3 to each sample (after defrosting), followed by incubation for 1 h at 60°C in an ultrasonic bath. Before the ICP-MS measurement, HNO3 was diluted to a final concentration of 1%. The instrument settings were optimized to produce the highest platinum sensitivity, and the most abundant isotopes of Pt and In (used as an internal standard) were quantified at m/z 195 and 115, respectively.
The quantity of Pt found in cells and normalized on cell number (cellular Pt accumulation) was expressed as ng of Pt per 10^6 cells. The mean cellular volume, calculated from the actual mean cell diameter measured for each sample (about 12 μm), was used to obtain the volume of 10^6 cells and, finally, the intracellular Pt concentration. At treatment time zero, 100 μL of the medium was taken from each sample to verify the extracellular Pt concentration. The ratio between intracellular and the actual extracellular concentrations is defined as the accumulation ratio, AR [70]. The Pt content in the control experiment, which characterizes any possible Pt contamination during the overall process, was statistically insignificant with respect to the cellular Pt accumulated during treatment, even in the case of A2780cisR.
Experiments with the inhibitors were carried out at 37°C as follows: (i) NaN3 + 2-deoxy-D-glucose (2DG): preincubation for 30 min in PBS with 25 mM NaN3 and 25 mM 2DG, followed by a 10 μM CT with the Pt compounds in Earle's Balanced Salt Solution (EBSS) for 1 h; (ii) cimetidine (CMT): coincubation with 1.5 mM CMT and 10 μM Pt compounds in EBSS for 1 h; (iii) 1-methyl-4-phenylpyridin-1-ium (MPP^+): coincubation with 2.0 mM MPP^+ and 10 μM Pt compounds in EBSS for 1 h; (iv) cytochalasin D (CTD): preincubation for 30 min in EBSS with 10 μM CTD, followed by a 10 μM CT with the Pt compounds in EBSS for 1 h; (v) O-benzylserine (BS): coincubation with 1.0 mM BS and 10 μM Pt compounds in EBSS for 4 h; (vi) ouabain (OUA): preincubation for 1 h in EBSS with 1 mM OUA, followed by a 10 μM CT with the Pt compounds in EBSS for 4 h; (vii) tetraethylammonium chloride (TEA): […] in EBSS for 4 h. In the experiments at low temperature, A2780 cells were preincubated for 2 h at 4°C, followed by CT with each Pt compound (10 μM) for 4 h. In all cases, at the end of the CT, the cells were manipulated as described in the previous paragraphs.

As usually defined, the IC50 is the concentration that inhibits the measured activity by half. On to `N.N.[Cl][Pt][Cl]` [Cisplatin, (SP-4-2)-diamminedichloridoplatinum(II)], for which the IC50 is 2.3 ± 0.3 µM in test [1], 3.8 ± 0.7 µM in test [2] and 6.22 ± 1.02 µM in test [3]. In test [3], the “resistance factor, RF = IC50 A2780cisR/IC50 A2780” value (from here on “resistance factor”) is listed as 13.

As for `N.N.[OH][Pt]([OH])([Cl])[Cl]` [Complex 1, (OC-6-33)-diamminedichloridodihydroxidoplatinum(IV)], the half-maximal inhibitory concentration (IC50) in test [1] was 22.9 ± 3.89 µM. Moreover, in test [4], the “effect of OCT inhibitors (TEA, MPP+, CMT) on AR” value is reported as “not significantly affected” and the “effect of NaN3/2DG pretreatment on cell accumulation (AR)” value (from here on “effect of NaN3/2DG pretreatment”) is “without appreciably affecting”. For the same compound, in test [2], 48.2 ± 27.7 µM corresponded to half-maximal inhibition (IC50). In test [3], the “resistance factor” value came out at 14 and the concentration for half-maximal inhibition (IC50) is 52.1 ± 3.48 µM.

For `CC(=O)[O][Pt]([OH])([Cl])[Cl].N.N` [Complex 2, (OC-6-44)-acetatodiamminedichloridohydroxidoplatinum(IV)], the IC50 in test [1] was 1.46 ± 0.02 µM; in test [2], 3.11 ± 0.74 µM; in test [3], 1.02 ± 0.68 µM. Besides, the “effect of O-benzylserine (BS) on cellular accumulation” value in test [4] (BS cotreatment 1 mM) is reported as “did not cause a significant effect”. For the same compound, the “effect of cimetidine (CMT) on cell accumulation” value in test [4] (CMT cotreatment 1.5 mM) is listed as “inhibited”. Besides, the “effect of cytochalasin D (CTD) on Pt accumulation” value in test [4] (CTD pretreatment 10 μM) is listed as “did not cause any decrease”. The “effect of MPP+ on cell accumulation” value in test [4] (MPP+ cotreatment 2 mM) is given as “inhibited”. Besides, the “effect of NaN3/2DG pretreatment” value in test [4] is “statistically reduced”. The “effect of ouabain (OUA) on cellular accumulation” value in test [4] (OUA pretreatment 1 mM) is reported as “did not cause a significant effect”. For the same compound, the “effect of tetraethylammonium (TEA) on uptake” value in test [4] (TEA pretreatment 20 mg·mL^−1) was “evident (albeit statistically not significant) decrease”. For the same compound, in test [3], the “resistance factor” value stood at 6.

As for `CC(=O)[O][Pt]([NH2])([NH2])([Cl])([Cl])[O]C(C)=O` [Complex 3, (OC-6-33)-diamminedichloridodiacetatoplatinum(IV)], the IC50 was 55.3 ± 1.69 µM in test [1], 78 ± 17.7 µM in test [2] and over 100 µM in test [3]. In addition, the “effect of OCT inhibitors (TEA, MPP+, CMT) on AR” value in test [4] is reported as “not significantly affected”. For the same compound, the “effect of NaN3/2DG pretreatment” value in test [4] is “without appreciably affecting”.
